In the supplement of paper PMC5908809:

What was measured:
[1] = system: normal NK cells expanded with K562-aAPC; assay: percent inhibition of viability; higher = more inhibition; conditions: 72 h, IL-2 2.5 ng/mL
Procedure: (§1)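 Drug sensitivity and resistance testing on K562-aAPC-expanded normal NK cells: 5 concentrations (10-fold steps over a 10,000-fold range), 72 h at 37 °C, viability by CellTiter-Glo normalised to DMSO and benzethonium chloride controls; DSS from the fitted curve.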

DERL-7 (IL-2 2.5 ng/mL) [2] = assay: as above; conditions: 72 h
IMC-1 (IL-2 20 ng/mL) [3] = assay: as above; conditions: 72 h
KAI3 (IL-2 2.5 ng/mL) [4] = assay: as above; conditions: 72 h
KHYG-1 (IL-2 2.5 ng/mL) [5] = assay: as above; conditions: 72 h
NK-92 (IL-2 2.5 ng/mL) [6] = assay: as above; conditions: 72 h
NK-YS (IL-2 2.5 ng/mL) [7] = assay: as above; conditions: 72 h
NKL (IL-2 2.5 ng/mL) [8] = assay: as above; conditions: 72 h
SNK-6 (IL-2 2.5 ng/mL) [9] = assay: as above; conditions: 72 h
YT (IL-2 2.5 ng/mL) [10] = assay: as above; conditions: 72 h
[11] = system: normal primary NK cells, pool 1 (3 donors) (IL-2 2.5 ng/mL); assay: as above; conditions: 72 h
[12] = system: normal primary NK cells, pool 1 (3 donors), resting (IL-2 0 ng/mL); assay: as above; conditions: 72 h
[13] = system: normal primary NK cells, pool 2 (3 donors) (IL-2 2.5 ng/mL); assay: as above; conditions: 72 h
[14] = system: normal primary NK cells, pool 3 (3 donors) (IL-2 2.5 ng/mL); assay: as above; conditions: 72 h
[15] = system: normal NK cells expanded with K562-aAPC; assay: drug sensitivity score (DSS) (DSS units); higher = more sensitive; extreme values may be limits of the assay; conditions: 72 h; IL-2 2.5 ng/mL
Procedure: as §1

DERL-7 (IL-2 2.5 ng/mL) [16] = assay: as above; conditions: 72 h
IMC-1 (IL-2 20 ng/mL) [17] = assay: as above; conditions: 72 h
KAI3 (IL-2 2.5 ng/mL) [18] = assay: as above; conditions: 72 h
KHYG-1 (IL-2 2.5 ng/mL) [19] = assay: as above; conditions: 72 h
NK-92 (IL-2 2.5 ng/mL) [20] = assay: as above; conditions: 72 h
NK-YS (IL-2 2.5 ng/mL) [21] = assay: as above; conditions: 72 h
NKL (IL-2 2.5 ng/mL) [22] = assay: as above; conditions: 72 h
SNK-6 (IL-2 2.5 ng/mL) [23] = assay: as above; conditions: 72 h
YT (IL-2 2.5 ng/mL) [24] = assay: as above; conditions: 72 h
[25] = system: normal primary NK cells, pool 1 (3 donors) (IL-2 2.5 ng/mL); assay: as above; conditions: 72 h
[26] = system: normal primary NK cells, pool 1 (3 donors), resting (IL-2 0 ng/mL); assay: as above; conditions: 72 h
[27] = system: normal primary NK cells, pool 2 (3 donors) (IL-2 2.5 ng/mL); assay: as above; conditions: 72 h
[28] = system: normal primary NK cells, pool 3 (3 donors) (IL-2 2.5 ng/mL); assay: as above; conditions: 72 h

C[C@@H](C(=O)O)c1ccc(-c2ccccc2)c(F)c1 [Tarenflurbil] (max concentration tested 10000 nM)
percent inhibition of viability [%]
Conditions	1 nM	10 nM	100 nM	1000 nM	10000 nM
DERL-7 (IL-2 2.5 ng/mL) [2]	4.46	2.02	-0.14	2.03	-3.24
IMC-1 (IL-2 20 ng/mL) [3]	-1.05	0.62	-1.4	-6.55	2.74
KAI3 (IL-2 2.5 ng/mL) [4]	-7.87	-7.47	3.52	11.2	23.6
KHYG-1 (IL-2 2.5 ng/mL) [5]	-3.32	-5.74	0.55	-0.63	6.21
NK-92 (IL-2 2.5 ng/mL) [6]	-0.98	-4.75	-2.63	14.7	23.1
NK-YS (IL-2 2.5 ng/mL) [7]	-4.2	-2.88	4.93	1.37	11.5
NKL (IL-2 2.5 ng/mL) [8]	-0.03	-4.97	19.8	21.7	16.2
SNK-6 (IL-2 2.5 ng/mL) [9]	-1.12	-28.7	-23.7	-16.9	14.1
YT (IL-2 2.5 ng/mL) [10]	-2.12	-10.1	2.14	4.49	14.9
[1]	-6.17	-4.88	-3.95	0.95	3.26
[11]	2	12.8	9.24	3.23	7.48
[12]	-0.07	18.2	4.52	11.8	8.75
[13]	-7.01	3.47	9.98	6.83	1.08
[14]	-14.1	-0.87	-2.01	-2.07	2.43

Conditions	drug sensitivity score
DERL-7 (IL-2 2.5 ng/mL) [16]	0
IMC-1 (IL-2 20 ng/mL) [17]	0
KAI3 (IL-2 2.5 ng/mL) [18]	1.72
KHYG-1 (IL-2 2.5 ng/mL) [19]	0
NK-92 (IL-2 2.5 ng/mL) [20]	2.36
NK-YS (IL-2 2.5 ng/mL) [21]	0.07
NKL (IL-2 2.5 ng/mL) [22]	5.13
SNK-6 (IL-2 2.5 ng/mL) [23]	0.04
YT (IL-2 2.5 ng/mL) [24]	0.47
[15]	0
[25]	0
[26]	0.07
[27]	0
[28]	0
